Measured values reported in patent US8481539B2, “Alkynylaryl compounds and salts thereof, pharmaceutical compositions comprising same, methods of preparing same and uses of same” (Bayer Intellectual Property GmbH, priority 2007, dated 2013).

Experiments:
Assay type in all cases: biochemical
human VEGFR2 = target: T1, human VEGFR2 (Homo sapiens, UniProt P35968); assay: VEGFR2 HTRF Assay (assay 5); conditions: pIC50 class; 10 μM ATP; read-out: Enzymatic VEGFR2 activity (assay 5)
T1 construct: GST-tagged recombinant kinase domain of the human VEGFR2; GST; host or cells: SF-9 cells
T1 sequence (P35968 834-1162 limits assumed): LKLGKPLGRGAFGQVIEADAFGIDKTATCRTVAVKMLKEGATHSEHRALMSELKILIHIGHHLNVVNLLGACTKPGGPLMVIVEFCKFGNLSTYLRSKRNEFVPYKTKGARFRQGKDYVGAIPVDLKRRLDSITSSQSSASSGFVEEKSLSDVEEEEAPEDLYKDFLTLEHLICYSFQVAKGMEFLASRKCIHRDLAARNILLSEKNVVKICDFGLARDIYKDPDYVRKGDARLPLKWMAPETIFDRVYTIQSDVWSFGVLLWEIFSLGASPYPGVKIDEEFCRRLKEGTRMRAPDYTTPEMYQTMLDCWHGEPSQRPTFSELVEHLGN
Description: Assay 5: VEGFR2 HTRF Assay
VEGFR2 inhibitory activity of compounds of the present invention was quantified employing the VEGFR2 HTRF assay as described in the following paragraphs.
GST-tagged recombinant kinase domain of the human VEGFR2 expressed in SF-9 cells was used as kinase. As substrate for the kinase reaction the biotinylated peptide biotin-Ahx-DFGLARDMYDKEYYSVG (C-terminus in acid form) was used which can be purchased e.g. form the company Biosynthan GmbH (Berlin-Buch, Germany). VEGFR2 was incubated for 45 min at 22° C. in the presence of different concentrations of test compounds in 5 μl assay buffer [50 mM Hepes/NaOH pH 7.0, 25 mM MgCl2, 5 mM MnCl2, 1.0 mM dithiothreitol, 0.1 mM sodium ortho-vanadate, 10 μM adenosine-tri-phosphate (ATP), 0.5 μM substrate, 0.001% (v/v) Nonidet-P40 (Sigma), 1% (v/v) dimethylsulfoxide]. The concentration of VEGFR2 was adjusted depending of the activity of the enzyme lot and was chosen appropriate to have the assay in the linear range. The reaction was stopped by the addition of 5 μl of a solution of HTRF detection reagents (0.1 μM streptavidine-XLent and 2 nM PT66-Eu-Chelate, an europium-chelate labelled anti-phospho-tyrosine antibody from Perkin Elmer) in an aqueous EDTA-solution (125 mM EDTA, 0.2% (w/v) bovine serum albumin in 50 mM HEPES/NaOH pH 7.0).
(§1) The resulting mixture was incubated for 1 h at 22° C. to allow the binding of the biotinylated phosphorylated peptide to the streptavidine-XLent and the PT66-Eu-Chelate. Subsequently the amount of phosphorylated substrate was evaluated by measurement of the resonance energy transfer from the PT66-Eu-Chelate to the streptavidine-XLent. Therefore, the fluorescence emissions at 620 nm and 665 nm after excitation at 350 nm was measured in a HTRF reader, e.g. a Rubystar (BMG Labtechnologies, Offenburg, Germany) or a Viewlux (Perkin-Elmer). The ratio of the emissions at 665 nm and at […] was taken as the measure for the amount of phosphorylated substrate. The data were normalized (enzyme reaction without inhibitor=0% inhibition, all other assay components but no enzyme=100% inhibition) and IC50 values were calculated by a 4 parameter fit using an inhouse software.

[1] = target: T2, human insuline receptor (Ins-R) (Homo sapiens, UniProt P06213); assay: Insulin Receptor HTRF Assay (assay 4); conditions: pIC50 class; 10 μM ATP; read-out: Enzymatic InsR activity (assay 4)
T2 construct: GST-tagged recombinant kinase domain of the human insuline receptor; GST; purchased ProQinase, Freiburg, Germany; host or cells: SF-9 cells
T2 sequence (P06213 1023-1298 limits assumed): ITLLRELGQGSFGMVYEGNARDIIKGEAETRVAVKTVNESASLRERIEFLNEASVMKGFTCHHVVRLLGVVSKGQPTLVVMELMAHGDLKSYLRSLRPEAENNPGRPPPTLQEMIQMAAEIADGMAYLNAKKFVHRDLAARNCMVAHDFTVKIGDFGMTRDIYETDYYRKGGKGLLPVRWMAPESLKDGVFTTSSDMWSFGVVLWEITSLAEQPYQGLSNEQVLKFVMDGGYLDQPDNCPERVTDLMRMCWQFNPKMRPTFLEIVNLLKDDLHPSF
Experimental: Assay 4: Insulin Receptor HTRF Assay
Inhibitory activity of compounds against the kinase activity of the insulin receptor was quantified employing the Ins-R HTRF assay as described in the following paragraphs.
GST-tagged recombinant kinase domain of the human insuline receptor (Ins-R, purchase from ProQinase, Freiburg, Germany) expressed in SF-9 cells was used as kinase. As substrate for the kinase reaction biotinylated poly-(Glu, Tyr) (Cis biointernational, France) was used.
Ins-R was incubated for 20 min at 22° C. in the presence of different concentrations of test compounds in 5 μl assay buffer [50 mM Hepes/NaOH pH 7, 15 mM MnCl2, 1 mM dithiothreitol, 0.1 μM sodium ortho-vanadate, 0.015% (v/v) PEG20000, 10 μM adenosine-tri-phosphate (ATP), 0.3 μg/ml substrate, 1% (v/v) dimethylsulfoxide]. The concentration of Ins-R was adjusted depending of the activity of the enzyme lot and was chosen appropriate to have the assay in the linear range, typical concentrations were in the range of 10 pg/μl. The reaction was stopped by the addition of 5 μl of a solution of HTRF detection reagents (0.1 μM streptavidine-XLent and 1 nM PT66-Eu-Chelate, an europium-chelate labelled anti-phospho-tyrosine antibody from Perkin Elmer) in an aqueous EDTA-solution (80 mM EDTA, 0.2% (w/v) bovine serum albumin in 50 mM HEPES/NaOH pH 7.0).
as §1, with “incubated” for “incubated for”, “normalised” for “normalized”

Tie-2 = target: T3, Tie-2 (Homo sapiens, UniProt Q02763); assay: Tie-2-Kinase HTRF-Assay (assay 2); conditions: pIC50 class; 10 μM ATP; read-out: Enzymatic Tie 2 activity (assay 2)
T3 construct: fusion protein of GST and the intracellular domains of Tie-2; GST; made in house; host or cells: insect cells (Hi-5)
T3 sequence (Q02763 770-1124 limits assumed, species assumed): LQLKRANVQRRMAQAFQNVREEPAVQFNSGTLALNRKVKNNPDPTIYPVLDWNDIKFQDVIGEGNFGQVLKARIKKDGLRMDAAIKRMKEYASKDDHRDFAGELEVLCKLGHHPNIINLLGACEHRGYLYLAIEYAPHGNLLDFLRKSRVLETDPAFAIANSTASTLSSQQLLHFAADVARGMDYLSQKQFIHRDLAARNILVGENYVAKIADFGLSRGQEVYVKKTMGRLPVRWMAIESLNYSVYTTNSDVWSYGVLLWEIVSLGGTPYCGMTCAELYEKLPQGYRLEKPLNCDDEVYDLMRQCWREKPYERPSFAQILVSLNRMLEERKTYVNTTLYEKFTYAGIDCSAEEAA
Description: Tie2-inhibitory activity of compounds of the present invention was quantified employing two Tie2 HTRF assay as described in the following paragraphs.
A recombinant fusion protein of GST and the intracellular domains of Tie-2, expressed in insect cells (Hi-5) and purified by Glutathion-Sepharose affinity chromatography was used as kinase. Alternatively, commercially available GST-Tie2-fusion protein (Upstate Biotechnology, Dundee, Scotland) can be used As substrate for the kinase reaction the biotinylated peptide biotin-Ahx-EPKDDAYPLYSDFG (C-terminus in amid form) was used which can be purchased e.g. from the company Biosynthan GmbH (Berlin-Buch, Germany). Detection of phosphorylated product is achieved specifically by a trimeric detection complex consisting of the phosphorylated substrate, streptavidin-XLent (SA-XLent) which binds to biotin, and Europium Cryptate-labeled anti-phosphotyrosine antibody PT66 which binds to phosphorylated tyrosine.
Tie-2 (3.5 ng/measurement point) was incubated for 60 min at 22° C. in the presence of 10 μM adenosine-tri-phosphate (ATP) and 1 μM substrate peptide (biotin-Ahx-EPKDDAYPLYSDFG-NH2) with different concentrations of test compounds (0 μM and concentrations in the range 0.001-20 μM) in 5 μl assay buffer [50 mM Hepes/NaOH pH 7, 10 mM MgCl2, 0.5 mM MnCl2, 1.0 mM dithiothreitol, 0.01% NP40, protease inhibitor mixture (“Complete w/o EDTA” from Roche, 1 tablet per 2.5 ml), 1% (v/v) dimethylsulfoxide]. The reaction was stopped by the addition of 5 μl of an aqueous buffer (25 mM Hepes/NaOH pH 7.5, 0.28% (w/v) bovine serum albumin) containing EDTA (90 mM) and the HTRF (Homogeneous Time Resolved Fluorescence) detection reagents streptavidine-XLent (0.2 μM, from Cis Biointemational, Marcoule, France) and PT66-Eu-Chelate (0.3 ng/μl; a europium-chelate labelled anti-phospho-tyrosine antibody from Perkin Elmer).
as §1, with “incubated” for “incubated for”, “substrate peptide” for “substrate”, “substrate peptide.” for “substrate.”, “normalised” for “normalized”, “inhibitor=0 (%” for “inhibitor=0%”

Q: What does the source list for `Cn1ncc2c(C#Cc3cc(NC(=O)Nc4cccc(C(F)(F)F)c4)ccc3F)cncc21` [Example 2.6, 1-[4-Fluoro-3-(1-methyl-1H-pyrazolo[3,4-c]pyridin-4-ylethynyl)-phenyl]-3-(3-trifluoromethyl-phenyl)-urea]?
A: IC50 (human VEGFR2): < 1000 nM; IC50 [1]: ≥ 10000 nM; IC50 (Tie-2): < 1000 nM
